Series [1] relates to HepG2 cells. Kind of series: Wound healing migration assay. In kind it is cell-based, human. As to conditions: HepG2, 24 h after wounding; UA 5 μM, US597 0.2, 1, 5 μM. On the procedure: SW620, B16-F10 and HepG2 cells (5 × 10^5 cells per well) were plated in 6-well plates for 24 h, a perpendicular scratch wound was generated by scratching with a 10 μL pipette tip. […] Cells were photographed using a light microscope (Zeiss, Germany) at 0 and 24 h after the drug treatment. The distance that cells migrated through the scribed area was determined by measuring the wound width at 24 h after treatment, and subtracting it from the wound width at 0 h. Experiments were repeated at least three times.

In series [2] the test system is B16-F10 melanoma lung metastasis. Kind of series: B16-F10/C57BL/6 mouse melanoma lung metastasis model. In kind it is in vivo, C57BL/6 mice. To be noted: 80 mg/kg/day oral, 28 days. On the procedure: (§1) To establish the lung metastasis model, B16-F10 cells were harvested, washed with serum-free RPMI 1640 and resuspended to give the appropriate concentrations in PBS, and injected into the tail vein of C57BL/6 mice at a density of 5 × 10^4/200 μL. […] Mice weight was measured every four days for 7 times. Mice were sacrificed (n = 6) at the 28st days after tumor inoculation. The heart, liver, spleen, lung, kidney and small intestine were excised, washed with PBS, and fixed in 10% neutral buffered formalin, and these tissues were then paraffin embeddedand stained with hematoxylin and eosin (H&E). The number of surface tumor nodules was determined by visual inspection using a magnifying glass, and histological observations were performed under a microscope (Zeiss, Germany).

The test system of series [3] is HepG2 cells. The series is described as follows: Transwell matrigel invasion assay. As to conditions: HepG2, 5 μM, 24 h; control 88 ± 5. In kind it is cell-based, human. On the procedure:
An invasion assay was carried out using 24-well plate. The […] pore-sized transwell inserts were coated with matrigel at 1 mg/mL on the upper chamber. The lower chamber was filled with medium containing 20% FBS as chemoattractant agents. The coated filter and upper chamber were laid over the lower chamber. […] After incubation for 24 h at 37°C, cells were fixed in methanol for 20 min. The cells on the inner layer were softly removed with a cotton swab, and the adherent cells on undersurface of the insert were stained with 0.1% crystal violet dye for 15 min. The filters were washed with PBS and images were taken. The invading cells were counted and photographed under a light microscope (Zeiss, Germany) at × 200 magnification. Five fields were counted per filter in each group and the experiment was conducted in triplicate.

The subject of a further series is B16-F10 cells. The series is described as follows: MTT cell viability assay. In kind it is cell-based, murine. As to conditions: Mus musculus, B16-F10, 24 h, read-out: IC50, cell proliferation. On the procedure:
(§2) Cell viability was determined by detecting the absorbance at 570 nm in a microquant plate reader (Thermo Fisher), triplicate wells were analyzed at each dose.
A general note: Formazan colour is commonly taken as a measure of viable cells.

Series [4] concerns VCAM-1. Kind of series: qRT-PCR of mRNA in IL-1β-stimulated HUVECs. In kind it is cell-based, human. To be noted: IL-1β 1 ng/mL 4 h, then 24 h, 5 μM.
Series [5] concerns ICAM-1. The series is described as follows: qRT-PCR of mRNA in IL-1β-stimulated HUVECs. In kind it is cell-based, human. As to conditions: IL-1β 1 ng/mL 4 h, then 24 h, UA 5 μM, US597 0.2, 1, 5 μM. A general note: Real-time PCR tracks product formation cycle by cycle.
The subject of series [6] is integrin α6, integrin β1, FAK, Src, paxillin and PTEN. The series is described as follows: Western blot of focal adhesion signaling proteins in HepG2 cells. In kind it is cell-based, human. As to conditions: 24 h, UA 5 μM, US597 0.2, 1, 5 μM. On the procedure: Cell dishes were washed with cold phosphate-buffered saline and treated with lysis buffer for several seconds at an ice-cold bath, and then cell lysates were clarified by centrifugation at 12,000 g for 5 min under 4°C and the supernatants were recovered. The concentrations of proteins were determined by the BCA method. Samples with equivalent amounts of proteins were resolved by SDS-PAGE using a 10% gel. Proteins were transferred to a polyvinyldene difluoride (PVDF) membrane. The membranes were washed for ten minutes with TBS (20 mM Tris, 160 mM NaCl) and were blocked by blocking solution (10 mM Tris-HCl (pH 7.4), 125 mM NaCl, 0.1% Tween 20, and 5% skim milk). The blots were washed three times with TBST(20 mM Tris, 160 mM NaCl, 0.1% Tween 20), and they were incubated with specific primary antibodies diluted 1:1000 in TBST solution overnight at 4°C. Subsequently, the blots were washed three times with TBST (20 mM Tris, 160 mM NaCl, 0.1% Tween 20), and then the blots were incubated with secondary antibody (horseradish peroxidase conjugated goat anti-rabbit-IgG) diluted 1:5000 in TBST solution for 2 h at 37°C. […] Chemiluminescent signals were generated using a Super Signal West Pico Chemiluminescent Substrate kit (Pierce), and detected by using the ChemiDoc XRS system (Bio-Rad). The target proteins expression was quantified by use of Image Lab analysis software (Bio-Rad).
In general terms: In western blotting, separated proteins are transferred to a membrane and probed.

The subject of series [7] is VCAM-1. The series is described as follows: Flow cytometry of surface expression on IL-1β-stimulated HUVECs. In kind it is cell-based, human. To be noted: 5 μM, 24 h. On the procedure: (§3) Cells expression of ICAM-1, VCAM-1, E-selectin, integrin α4, α5, α6 and β1 were performed via flow cytometry. […] After incubation, the cells were washed twice with PBS and collected for staining. The cells and primary antibodies were incubated at 4°C for 20 min in the dark. After washing with staining buffer, cell adhesion molecule (ICAM-1, VCAM-1 and E-selectin) and integrins (integrin α6 and β1) expression on cell-surface were measured by BD FACSAriaIII flow cytometry. The data were processed by FlowJo software and expressed as the mean fluorescent intensities.

Series [8] deals with ICAM-1. The series is described as above. In kind it is cell-based, human. To be noted: 5 μM, 24 h. On the procedure: as §3
Series [9] can be described thus: Toxicity in tumor metastatic mice (body weight, histopathology, blood analysis). In kind it is in vivo, C57BL/6 mice. As to conditions: 28 days. On the procedure:
as §1

The next series has as its system L02 cells. The series is described as follows: MTT cell viability assay, normal liver cells. In kind it is cell-based. To be noted: L02 normal human liver cells, 24 h. On the procedure: as §2
The next series relates to HUVEC cells. Kind of series: MTT cell viability assay, endothelial cells. In kind it is cell-based. To be noted: Homo sapiens, 24 h. On the procedure:
as §2

Series [10] deals with HepG2 cells. Kind of series: MTT cell viability assay. To be noted: Homo sapiens, HepG2, 24 h, read-out: IC50, cell proliferation. In kind it is cell-based. On the procedure:
as §2

The subject of another series is MHCC-97L cells. The series is described as follows: MTT cell viability assay. As to conditions: Homo sapiens, MHCC97L, 24 h, read-out: IC50, cell proliferation. In kind it is cell-based. On the procedure: as §2
In the next series the test system is MHCC-97H cells. The series is described as follows: MTT cell viability assay. In kind it is cell-based. As to conditions: Homo sapiens, MHCC97H, 24 h, read-out: IC50, cell proliferation. On the procedure: as §2
Series [11] has as its system ICAM-1. The series is described as follows: ICAM-1 immunohistochemistry of lung tissue. In kind it is in vivo, C57BL/6 mice. To be noted: UA group and high dose US597 group, P < 0.01. On the procedure:
Frozen sections (6 μm) were stained with anti-ICAM-1 antibody as previously described. ICAM-1 expression in lung tissue was performed with avidin-biotin complex (ABC) method. Results for ICAM-1 positive cells are shown as × 200 magnification.

Series [12] concerns nine cancer cell lines (MHCC-97H, MHCC-97L, HepG2, M619, MDA-MB-231, MCF-7, HT29, SW620, B16-F10). The series is described as follows: MTT cell viability assay, span over nine cancer cell lines. In kind it is cell-based. To be noted: 24 h, read-out: IC50 to suppress cell proliferation, span over nine cancer cell lines. On the procedure: as §2

For `C[C@H]1[C@H](C)CC[C@]2(C(=O)O)CC[C@]3(C)C(=CC[C@@H]4[C@@]5(C)CC[C@H](O)C(C)(C)[C@@H]5CC[C@]43C)[C@H]12` [UA, 3β-hydroxy-urs-12-en-28-oic acid], the “cell migration in wound healing assay” value in the series with HepG2 cells [1] is reported as “showed less migration in wound area”. Further, in series [2], the “inhibitory rate, number of lung metastatic nodules” value came to 14.45%. Besides, the “average number of invaded cells” value with HepG2 cells [3] amounted to 75 ± 3. Moreover, the IC50 was 31.7 µM in the series with B16-F10 cells; 41.9 µM with L02 cells; 51.1 µM in the series with HUVEC cells; 33.1 µM in the series with HepG2 cells [10]; 32.2 µM in the series with MHCC-97L cells; 36.1 µM in the series on MHCC-97H cells. Also, in [12], the IC50 lay in the range of 31.7 to 60.1 µM. The “VCAM-1 mRNA expression” value in the series on VCAM-1 [4] is listed as “almost no change”. Besides, the “ICAM-1 mRNA expression” value with ICAM-1 [5] is “inhibited the induction”. Besides, the “protein expression of integrin α6, integrin β1, FAK, Src, paxillin and PTEN” value in series [6] is “the effect was prominent”. Further, in the series with VCAM-1 [7], the “VCAM-1 expression, % of control” value was “no significant effect”. Also, the “ICAM-1 expression, % of control” value in the series with ICAM-1 [8] is “no significant effect”. In addition, the LYMPH in series [9] (80 mg/Kg, normal range 0.9 – 9.3, control 6.82 ± 2.17) is 3.65 ± 1.48 × 10^9/L. Further, in [9] (80 mg/Kg, normal range 1.8 – 10.7, control 9.31 ± 1.28), the WBC was 7.14 ± 0.33 × 10^9/L. Further, the RBC in series [9] (80 mg/Kg, normal range 6.36 – 9.42, control 9.04 ± 0.27) is 8.84 ± 2.31 × 10^12/L. In addition, the HGB in series [9] (80 mg/Kg, normal range 110.0 – 151.0, control 136.42 ± 1.15) was found to be 131.56 ± 0.89 g/L. The PLT in series [9] (80 mg/Kg, normal range 592 – 2972, control 1583 ± 126) is listed as 1461 ± 251 × 10^9/L. The animal body loss result in [9] (80 mg/kg daily oral) is reported as “did not induce significant animal body loss”. In addition, the “histopathology of heart, liver, spleen, kidney and small intestine” value in series [9] (80 mg/kg daily oral, H&E) is “no remarkable histopathological abnormalities or lesions”. Further, the “ICAM-1 expression in lung tissue vs control” value in the series on ICAM-1 [11] is on record as “significantly decreased”.

Values taken from PMC4496218 (Oncotarget, 2015).
